Measurements from US7358233B2, “Tetronic acid derivative” (Toudai TLO, Ltd, priority 2001, dated 2008).

What was measured:
HT-29 cells [1] = assay: Re-examination of apoptosis inducing effect on HT-29 cells; assay type: cell-based
Excerpt: Since the in vitro strong effect could not be confirmed in the animal experiment, the apoptosis inducing effect of VST on HT-29 cells was reexamined.

HT-29 cells [2] = assay: Combined use of VST and cisplatin, colony-forming ability of HT-29 cells; assay type: cell-based
Excerpt: Enhancement of endoplasmic reticulum stress response promotes survival of cells under undernutritive conditions, and at the same time allows cells to acquire resistance to antitumor agents. Therefore, the inventors intended to examine the effect of VST on known antitumor agents. […] Therefore, the combined effect with other pharmaceutical agents could not be duly examined. Thus, cisplatin generally used for solid cancer treatment was used to examine the combined effect, due to its activity on cancer cells that is maintained even under low glucose conditions. Specifically, HT-29 cells were cultured by the above-mentioned method, pretreated for 30 min with VST, and then cultured for 18 hours. The cells were then treated for 4 hours with each concentration of cisplatin, and a week later their colony-forming ability was examined.

Saos-2 = assay: Direct growth suppression, MTT method; assay type: cell-based; settings: Homo sapiens, 24 hours, read-out: IC50 of VST
Excerpt: (§1) In this Example, HeLa cells and various other culture cells were used to measure the survival rate during the above-mentioned reporter analysis and VST addition. Specifically, in addition to HeLa cells (human cervical cancer cells), MCF-7 (human breast cancer cells), PC12NH (rat pheochromocytoma), MDA-MB-231 (human breast cancer cells), TIG-3 (human normal fibroblast cells), HeLa 786C cells (human cervical cancer cells), Saos-2 (telomerase and p53-deficient human cancer cells) and SUSM-1 (telomerase-deficient human cancer cells) were used.
(§2) The direct growth suppression activity of VST on these cells was measured using the MTT method. 100 μL cell suspension (5×10^4/mL) of each of the above-mentioned cells was dispensed into each well of a 96-well plate and cultured for 6 hours at 37° C. After culturing, VST solution diluted stepwise as in Example 4 was added thereto and cultured for another 24 hours. After culturing for 24 hours, 0.05 g/mL MTT solution (10 μL) was added to each well and incubation was performed at 37° C. for 4 hours. The medium was then removed, DMSO (100 μL) was added, and the absorbance at 530 nm was measured (FIG. 8).

HeLa786C = assay: Direct growth suppression, MTT method; assay type: cell-based; settings: Homo sapiens, 24 hours, read-out: IC50 of VST
Excerpt: as §1, §2

SUSM-1 = assay: Direct growth suppression, MTT method; assay type: cell-based; settings: Homo sapiens, 24 hours, read-out: IC50 of VST
Excerpt: as §1, §2

MCF-7 = assay: Direct growth suppression, MTT method; assay type: cell-based; settings: Homo sapiens, MCF7, 24 hours, read-out: IC50 of VST
Excerpt: as §1, §2

GRP78 promoter = GRP78 promoter luciferase reporter analysis in HeLa78C6 cells, with tunicamycin-induced endoplasmic reticulum stress; assay type: cell-based, human
Description: Screening for natural substances that may regulate the expression of GRP78 was performed. Specifically, herbal medicines, and respective metabolites of fungus and actinomyces were prepared as test samples. A screening system was prepared as follows. A GRP78 promoter region (−132 to +7) comprising three ERSE was inserted into the KpnI-BglII site of the multicloning site of pGL3-basic vector (Promega), and a luciferase gene was linked as a reporter gene downstream of the GRP78 promoter to construct a vector. […]
The cell suspension (100 μL) was dispensed into each well of a 96-well plate and incubated at 37° C. in 5% CO2 for 6 hours. […] Then, luciferase activity of the cells was measured using a luciferase measurement kit (Luciferase Assay System: Promega, cat# E1501) following the instruction attached to the kit.
The main culture was separated into culture supernatant and mycelial cake by centrifugation. Similar to Example 1, the activities to suppress GRP78 expression were measured by the reporter analysis method for the culture supernatant and mycelial cake product that was obtained by homogenizing the mycelial cake, respectively. […] Then, luciferase activity of the cells was measured using a luciferase measurement kit.
Using pure VST purified in Example 3, its activity to suppress GRP78 promoter expression was quantitated. […]

CC/C1=C\C(CO)CC(C)C(OC2CC(O)C(OC3CC(OC)C(OC4CC(O)C(O)C(C)O4)C(C)O3)C(C)O2)C(C)CCCC2(C)C=C(C)C(C)CC23OC(=O)C(=C3O)C(=O)C2(CC)C1C(C)=CC1C(O)CC(=O)C(C)C12 (stereo not shown) [VST, versipelostatin]
apoptosis induction effect (HT-29 cells [1]): fails to express apoptosis induction effect | growth suppression effect in colony forming tests (HT-29 cells [1]): shows growth suppression effect | effect of the combined use of VST with cisplatin on colony-forming ability (HT-29 cells [2]; VST 300 nM and 500 nM, then cisplatin 4 hours (FIG. 14)): further enhance the effect of cisplatin | activity on colony-forming ability under glucose starvation condition (HT-29 cells [2]; glucose starvation condition): enhance the activity | IC50 (Saos-2): > 100 µM | IC50 (HeLa786C): 52.9 µM | IC50 (SUSM-1): > 100 µM | IC50 (MCF-7): > 100 µM | suppression of the increase of luciferase activity (GRP78 promoter expression) due to tunicamycin (GRP78 promoter; sample added 30 min before tunicamycin 2 μg/mL, 18 hours): suppressed in concordance with the increase in VST concentration | luciferase expression from the GRP78 promoter, VST alone (GRP78 promoter; without tunicamycin addition): did not affect the expression of luciferase
